Experimental data: patent US9150598B2, “Masking apertures enabling automation and solution exchange in sessile bilayers” (The Regents of the University of California, priority 2011, dated 2015)

What was measured:
[1] = molecular target: T1, TRPM8 (Rattus norvegicus, UniProt Q8R455); test: Ensemble TRPM8 currents in droplet lipid bilayer with solution perfusion (drug potency); format: biochemical; conditions: +100 mV
T1 construct: 6x histidine tag (N); made in house; host or cells: E. coli
Description: (§1) The apparatus was prepared for use by filling the outer wells and lower channel with 200 μL of an aqueous solution containing liposomes (described below) (FIG. 1B). The 200 μm aperture in the hydrophobic Delrin film is sufficiently small to prevent flow of aqueous solution through it. 80 μL of n-decane was then added to the center well, contacting the lower aqueous solution through the Delrin aperture (FIG. 1B). […] The lower aqueous solution could be exchanged by adding and withdrawing fluids through the outer wells (FIG. 1B).
2 μL of this solution was used for the sessile droplet and 200 μL of this solution (or a similarly prepared liposome solution not containing TRPM8) was added to the lower aqueous channel.
A Ag/AgCl counter electrode placed in the one of the outer wells and the Ag/AgCl pin electrode were connected to an Axopatch 200B amplifier (Axon Instruments), which was used to apply a transmembrane potential and measure the resultant ionic current (FIG. 1B). […] Bilayer capacitance was measured throughout to ensure that changes in measured current were due to changes in channel conductance and not changes in bilayer size or stability. […]
The resultant current at each concentration was measured over 10 minutes before the concentration was increased (FIG. 7). […]
The average current at each concentration was determined and normalized by the maximum value measured. […]

[2] = molecular target: T1, TRPM8; test: Ensemble TRPM8 currents while varying PI(4,5)P2 concentration; format: biochemical; conditions: 250 μM menthol, +100 mV, 20° C.
Description: Data were filtered at 200 Hz. Measurements began in the absence of PI(4,5)P2. After ten minutes at each concentration, the concentration of PI(4,5)P2 was then increased by 0.8 μM with the addition of […] PI(4,5)P2 stock solution (100 μM) to the 200 μL lower aqueous solution. With no PI(4,5)P2 in the measurement solution, there was no observed channel activity. As the concentration of PI(4,5)P2 increased, frequency of channel opening increased. […] Throughout experiments, temperature was kept constant at 20° C.
During measurement, solutions were added to the fluid inlet well and withdrawn from the fluid outlet well (FIG. 6D).
Bilayers were formed with this chip at very high yield and with highly consistent diameters (163±14 μm (n=55), measured capacitively).^17 Following bilayer formation, a potential of 0 mV was applied followed by voltage steps from −100 mV to +100 mV, in 20 mV increments for 10 seconds each, and the resulting current measured. We measured no TRPM8 currents in the absence of the signaling phospholipid PI(4,5)P2, in agreement with previous work (B. Liu and F. Qin, J. Neurosci., 2005, 25, 1674-1681; T. Rohács, C. M. B. Lopes, I. Michailidis and D. E. Logothetis, Nat. Neurosci., 2005, 8, 626-634). […] With PI(4,5)P2, constant TRPM8 currents were almost always observed immediately upon bilayer formation.

[3] = Control: DPhPC droplet bilayers made without hERG membrane preparations; conditions: identical amounts of drug added
[4] = molecular target: T1, TRPM8; test: Single-channel TRPM8 recordings in droplet lipid bilayer (open probability); format: biochemical; conditions: 20° C., +100 mV, 2.5 μM PI(4,5)P2, n=9
Description: as §1
A TRPM8 construct with 6× histidine tag at the amino terminus was transformed into E. coli, expressed, and purified. […] The resulting proteoliposomes were aliquoted and stored at −80° C. […]
A Ag/AgCl counter electrode placed in the one of the outer wells and the Ag/AgCl pin electrode were connected to an Axopatch 200B amplifier (Axon Instruments), which was used to apply a transmembrane potential and measure the resultant ionic current (FIG. 1B). […] Bilayer capacitance was measured throughout to ensure that changes in measured current were due to changes in channel conductance and not changes in bilayer size or stability.
Temperature was measured using a 10 kΩ n-type thermistor (Newark) placed in the solution of one of the outer wells. […]
Ensembles of TRPM8 were measured using a 1:1000 protein:lipid ratio.

T1 sequence (Q8R455 whole entry, the tested form may be a part): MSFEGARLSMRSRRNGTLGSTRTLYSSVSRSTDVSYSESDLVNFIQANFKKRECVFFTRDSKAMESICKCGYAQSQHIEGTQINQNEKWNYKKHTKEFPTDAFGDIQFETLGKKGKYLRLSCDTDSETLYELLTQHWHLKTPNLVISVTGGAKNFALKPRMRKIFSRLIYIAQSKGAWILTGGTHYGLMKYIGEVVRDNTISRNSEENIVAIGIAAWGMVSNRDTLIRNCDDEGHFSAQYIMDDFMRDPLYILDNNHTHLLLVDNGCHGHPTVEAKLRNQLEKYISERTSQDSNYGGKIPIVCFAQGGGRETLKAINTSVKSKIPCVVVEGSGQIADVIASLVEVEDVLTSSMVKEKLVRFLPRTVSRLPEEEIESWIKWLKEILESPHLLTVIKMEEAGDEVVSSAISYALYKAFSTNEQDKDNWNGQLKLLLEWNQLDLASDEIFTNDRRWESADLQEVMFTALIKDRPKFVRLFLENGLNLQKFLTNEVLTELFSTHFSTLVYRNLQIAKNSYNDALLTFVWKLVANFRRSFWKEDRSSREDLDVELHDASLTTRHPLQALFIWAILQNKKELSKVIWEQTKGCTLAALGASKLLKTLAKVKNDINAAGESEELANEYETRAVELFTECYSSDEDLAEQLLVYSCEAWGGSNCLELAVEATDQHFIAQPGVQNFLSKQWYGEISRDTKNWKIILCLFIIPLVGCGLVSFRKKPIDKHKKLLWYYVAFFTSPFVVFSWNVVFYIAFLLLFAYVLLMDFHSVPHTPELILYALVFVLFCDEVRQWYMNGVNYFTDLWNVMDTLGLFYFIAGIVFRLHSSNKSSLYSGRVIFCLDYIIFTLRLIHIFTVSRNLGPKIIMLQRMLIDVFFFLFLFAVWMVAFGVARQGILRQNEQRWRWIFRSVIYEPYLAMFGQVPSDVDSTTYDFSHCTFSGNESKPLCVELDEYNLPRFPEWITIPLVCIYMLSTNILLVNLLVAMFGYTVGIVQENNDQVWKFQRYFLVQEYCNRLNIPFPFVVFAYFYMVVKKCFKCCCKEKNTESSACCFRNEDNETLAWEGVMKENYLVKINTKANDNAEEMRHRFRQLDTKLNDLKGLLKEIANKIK

NCCOB(c1ccccc1)c1ccccc1 [2-APB, 2-aminoethoxydiphenyl borate]
IC50 ([1]; read-out: IC50 of 2-APB on menthol-evoked TRPM8 currents, in 500 μM menthol, protein:lipid 1:1000, n=3): 4.9 µM

phosphatidylinositol-4,5-bisphosphate [PI(4,5)P2]
PI(4,5)P2 concentration at which maximum current did not increase further [2]: 2.4 µM

COc1ccc(CCN2CCC(Nc3nc4ccccc4n3Cc3ccc(F)cc3)CC2)cc1 [astemizole]
Effect on bilayers without hERG [3]: no change in membrane conductance observed

CC1CCC(C(C)C)C(O)C1 (stereo not drawn) [menthol]
Popen (open probability) of TRPM8 ([4]; 50 μM menthol): 0.639±0.029 | Popen (open probability) of TRPM8 ([4]; 500 μM menthol): 0.967±0.013 | EC50 ([1]; protein:lipid 1:1000, 2.5 μM PI(4,5)P2, n=3): 112 µM
